The values that follow come from US9617262B2, “Antibacterial cyclopental[C]pyrrole substituted 3,4-dihydro-1H-[1,8]naphthyridinones” (Janssen Sciences Ireland UC, priority 2011, dated 2017).

Data set [1] addresses S. aureus ATCC 29213 FabI (Staphylococcus aureus (strain MRSA252), UniProt Q6GI75). In words: Staphylococcus aureus FabI enzyme inhibition assay. To be noted: pH 6.5, 30 minutes at room temperature. In kind it is biochemical. How it is done: FabI enzyme inhibition assays were carried out in half-area, 384-well microtitre plates. Compounds were evaluated in 40-μl assay mixtures containing 100 mM NaADA, pH 6.5 (ADA=N-[2-acetamido]-2iminodiacetic acid), 250 μM crotonoyl-CoA, 625 μM NADH and 50 μg/ml S. aureus ATCC 29213 FabI. Inhibitors were typically varied over the range of 50 to 0.39 μM. The reaction mixtures were incubated for 30 minutes at room temperature and the reaction was stopped by adding 200 mM Tris buffer (pH 9.0) to create a pH-shift. The consumption of NADH was monitored by measuring the change in absorbance at […]. By comparing sample readings to those of negative (absence of compound) and positive (absence of enzyme) controls, the percent inhibition of enzymatic activity of the compounds was determined. A best-fit curve is fitted by a minimum of squares method. From this an IC50-value (expressed in μg/ml), resulting in 50% inhibition of enzymatic activity, was obtained.

The subject of the next data set is Human HelaM cells. In words: Cytotoxicity MTT assay (TOX HELAM). In kind it is cell-based. The conditions noted are these: 72 hours. How it is done:
Cytotoxicity of the compounds was evaluated using the MTT assay. Human HelaM cells grown in 96-well plates were exposed to serial dilutions of the tested compounds (final volume of 0.2 ml) and incubated for 72 hours at 37° C. and 5% CO2. Inhibitors are typically varied over the range of 25 to 0.8 μM. The final DMSO concentration in the assay is 0.5%. MTT (3-(4,5-Dimethylthiazol-2-yl)-2,5-diphenyltetrazolium bromide, a tetrazole) was added and reduced to purple formazan only in living cells. Solubilization of the formazan crystals was achieved by adding 100 μl 2-propanol. Cell viability was determined by measuring the absorbance of the reduced formazan, giving a purple color, at 540 nm and 690 nm. The absorbance measured at 690 nm was automatically subtracted from the absorbance at 540 nm, to eliminate the effects of non-specific absorption. The percent cytotoxicity achieved by the compounds was calculated according to standard methods. Cytotoxicity is reported as CC50, the concentration that causes a 50% reduction in cell viability.
The results are depicted in the table D2 below (TOX HELAM).

Data set [2] concerns Staphylococcus aureus ATCC 29213. In words: Antibacterial susceptibility testing: IC90 determination (STA). The conditions noted are these: STA ATCC 29213, 90% inhibitory concentration for bacterial growth. In kind it is cell-based. How it is done: (§1) The following bacteria were used: Staphylococcus aureus ATCC 29213, methicillin-resistant Staphylococcus aureus (MRSA) ATCC 700788 and Escherichia coli ATCC 35218. The bacteria used in this study were grown overnight in flasks containing 100 ml Mueller-Hinton broth (Difco cat. nr. 0757-17) in sterile de-ionized water, with shaking, at 37° C. Stocks were store at −70° C. until use.
(§2) Bacteria were incubated on a tryptic soy agar plate containing 5% sheep blood (Becton Dickinson cat. nr. 254053) for 18-24 hours at 35° C. in aerobic conditions (first passage). For the second passage, fresh Mueller-Hinton broth is inoculated with 5-10 colonies and grown overnight at 35° C. until turbidity (reaching log-phase) in aerobic conditions is reached. The bacterial suspension is then adjusted to 0.5 McFarland density and further diluted 1:100 in Mueller Hinton broth medium. This is used as inoculum.
(§3) MIC assays were performed by the broth microdilution method in a 96-well format (flat-bottom microtitre plates) with a final volume of 0.1 ml Mueller Hinton broth containing two-fold serial dilutions of compounds and inoculated with 5×10^5 CFU/ml of bacteria (standard inoculum size according to CLSI guidelines). Inhibitors are typically varied over the range of 63 to 0.49 μM. The final DMSO concentration in the assay was 1.25% (maximum tolerable DMSO concentration=6%). In the assays where the effect of human serum on the activity of the compounds against S. aureus was tested, human serum was added at a final concentration of 10%. The plates were incubated at 35° C. for 16-20 hours. At the end of incubation the bacterial growth was quantified fluorometrically. For this, resazurin was added to all wells and the plates were re-incubated. The incubation time is dependent on the type of bacteria. A change in color from blue to pink indicated the growth of bacteria. The fluorescence was read in computer-controlled fluorometer (Fluoroskan Ascent FL, Labsystems) at an excitation wavelength 540 nm and an emission wavelength of 590 nm. The % growth inhibition achieved by the compounds was calculated according to standard methods. The IC90 (expressed in μg/ml) was defined as the 90% inhibitory concentration for bacterial growth. A panel of reference compounds were simultaneously tested for QC approval.

Another data set deals with S. aureus. In words: Antibacterial susceptibility testing: IC90 determination with 10% human serum (STA + 10% HS). In kind it is cell-based, Staphylococcus aureus. To be noted: human serum at a final concentration of 10%. How it is done: as §1, §2, §3
The results are depicted in the table D2 below (STA+10% HS).

For data set [3], the system named is Staphylococcus aureus ATCC 43300; reference strain MRSA. In words: Antimicrobial spectrum, broth microdilution MIC. In kind it is cell-based. The conditions noted are these: S. aureus ATCC 43300. How it is done: (§4) Minimum Inhibitory Concentrations (MICs) were determined in accordance with the Clinical and Laboratory Standards Institute (CLSI) methodology against aerobic bacteria (CLSI M07-A8) (see Clinical and Laboratory Standards Institute. 2009. Methods for dilution antimicrobial susceptibility tests for bacteria that grow aerobically. CLSI document M07-A8, Vol. 29, No. 2.) by the broth microdilution method with cation-adjusted Mueller-Hinton broth (CA-MHB) medium for the majority of organisms, except for Haemophilus influenza, where Haemophilis test medium (HTM) broth was used. Descriptions of the individual organisms can be found in the table. Where possible, ATCC standard strains were tested.
(§5) The inoculum density for the susceptibility testing was standardized to give a final inoculum of approximately 5×10^5 CFU/mL.
(§6) Stock solutions of the compounds were prepared in DMSO at concentrations of 1 mg/mL. Linezolid was prepared in DMSO at a concentration of 2 mg/mL. Stock solutions of all compounds were diluted into CA-MHB to give a range of two-fold dilutions, depending upon the sensitivity of the organism being tested.
Background: Broth dilution looks for growth in wells or tubes with falling amounts of substance.

Data set [4] relates to Staphylococcus aureus ATCC 29213; reference strain MSSA. In words: Antimicrobial spectrum, broth microdilution MIC. In kind it is cell-based. The conditions noted are these: S. aureus ATCC 29213. How it is done:
as §4, §5, §6

Data set [5] deals with Escherichia coli Tol C mutant. In words: Antimicrobial spectrum, broth microdilution MIC. In kind it is cell-based. The conditions noted are these: E. coli tolC mutant. How it is done:
as §4, §5, §6

For data set [6], the system named is Haemophilus influenzae ATCC 49247; reference strain. In words: Antimicrobial spectrum, broth microdilution MIC. In kind it is cell-based. The conditions noted are these: H. influenza ATCC 49247. The procedure: as §4, §5, §6
In data set [7] the test system is Escherichia coli ATCC 25922; reference strain. In words: Antimicrobial spectrum, broth microdilution MIC. In kind it is cell-based. To be noted: E. coli ATCC 25922. The procedure: as §4, §5, §6
Data set [8] in a line: In vivo pharmacokinetic and oral bioavailability. The conditions noted are these: male Swiss mice; for C0: 20% HP-β-CD solution; for Oral bioavailability: p.o. 10 mg/kg vs i.v. 2.5 mg/kg. The procedure: The in vivo pharmacokinetics and oral bioavailability of the compound of the examples was/is investigated in male Swiss mice (fed) following single intravenous (i.v.) bolus and oral (p.o.) administration. For the i.v. and p.o. solution formulations, the compound was/is dissolved in a 20% HP-β-CD solution. The pH of the formulations was/is around pH 4. All i.v. formulations were isotonic.

≈ marks a conversion by molar mass, not a printed value.

With `O=C1CCc2cc(/C=C/C(=O)N3C[C@@H]4CN(c5ccccc5)C[C@@H]4C3)cnc2N1` [compound 2], in [1], the “FabI IC50” value was 0.78 µg/mL. Also, in the data set with Human HelaM cells, the “TOX HELAM (222.125) CC50” value was above 19.4696 µg/mL. The “STA (361.159) IC90” value in [2] amounted to 1.02 µg/mL. Further, the “STA + 10% HS (361.169) IC90” value in the data set with S. aureus came out at 1.09 µg/mL. The MIC90 is 0.5 µg/mL (≈ 1.29 µM) in data set [3]; 0.25 µg/mL (≈ 0.644 µM) in [4]; 0.25 µg/mL (≈ 0.644 µM) in data set [5]; above 8 µg/mL in [6]; above 8 µg/mL in [7].
In general, Cmax refers to the maximum level reached in the sampled fluid or tissue. For orientation: Tmax means the time from dosing to the highest level. Take `O=C1CCc2cc(/C=C/C(=O)N3CC4C=C(c5ccsc5)CC4C3)cnc2N1` (stereo not shown) [compound 10]: the “FabI IC50” value in data set [1] amounted to 0.53 µg/mL. The “TOX HELAM (222.125) CC50” value in the data set on Human HelaM cells is above 3.915 µg/mL. In [2], the “STA (361.159) IC90” value worked out at 0.08 µg/mL. Moreover, in the data set on S. aureus, the “STA + 10% HS (361.169) IC90” value was found to be 0.13 µg/mL. In data set [3], this compound displayed an MIC90 of 0.03 µg/mL (≈ 0.0766 µM). The MIC90 in data set [4] was 0.015 µg/mL (≈ 0.0383 µM). The compound also had an MIC90 in [5] of 0.125 µg/mL (≈ 0.319 µM). Moreover, the MIC90 in data set [6] was above 8 µg/mL. Further, the MIC90 in [7] was above 8 µg/mL. Moreover, in data set [8] (i.v. 2.5 mg/kg), the AUC0-inf was 3992 ng·h/mL, the “Half life (t1/2)” value was 1.3 h, the “Plasma clearance Cl” value came to 10.7 mL/min/kg and the Vdz is on record as 1.2 L/kg. This compound also displayed a C0 in data set [8] (i.v. 2.5 mg/kg) of 4154 ng/mL. In data set [8], this compound had an Oral bioavailability of 81%. Besides, in [8] (p.o. 10 mg/kg), the AUC0-inf was determined as 12376 ng·h/mL, the Cmax is 3537 ng/mL, the “Half life (t1/2)” value stood at 2.2 h and the Tmax is listed as 1.0 h.
Turning to `O=C1CCc2cc(/C=C/C(=O)N3CC4C=C(c5ccncc5)CC4C3)cnc2N1` (stereo not shown) [compound 12], the “FabI IC50” value in [1] turned out to be 0.44 µg/mL. Further, the “TOX HELAM (222.125) CC50” value in the data set on Human HelaM cells was above 9.707 µg/mL. In data set [2], the “STA (361.159) IC90” value stood at 0.33 µg/mL. In addition, in the data set on S. aureus, the “STA + 10% HS (361.169) IC90” value worked out at 0.53 µg/mL. Moreover, the MIC90 in data set [3] is 0.125 µg/mL (≈ 0.323 µM). In addition, in data set [4], the MIC90 came out at 0.125 µg/mL (≈ 0.323 µM). In addition, in data set [5], the MIC90 stood at 0.25 µg/mL (≈ 0.647 µM). Also, the MIC90 in data set [6] amounted to 1 µg/mL (≈ 2.59 µM). The compound also gave an MIC90 in data set [7] above 8 µg/mL. Moreover, in [8] (i.v. 2.5 mg/kg), the AUC0-inf is 1124 ng·h/mL, the “Half life (t1/2)” value came to 1.1 h, the “Plasma clearance Cl” value was 36.7 mL/min/kg and the Vdz was 3.7 L/kg. In [8] (i.v. 2.5 mg/kg), this compound displayed a C0 of 2333 ng/mL. In addition, the Oral bioavailability in data set [8] stood at 21%. Also, in data set [8] (p.o. 10 mg/kg), the AUC0-last worked out at 914 ng·h/mL, the Cmax is given as 275 ng/mL and the Tmax came out at 1.0 h.
With `O=C1CCc2cc(/C=C/C(=O)N3CC4C=C(c5ccccc5F)CC4C3)cnc2N1` (stereo not shown) [compound 21], in data set [1], the “FabI IC50” value came out at 0.65 µg/mL. For the same compound, in the data set on Human HelaM cells, the “TOX HELAM (222.125) CC50” value was above 4.0346 µg/mL. Besides, the “STA (361.159) IC90” value in [2] is 0.13 µg/mL. In addition, the “STA + 10% HS (361.169) IC90” value with S. aureus was 0.29 µg/mL.
As to `O=C1CCc2cc(/C=C/C(=O)N3CC4C=C(c5ccoc5)CC4C3)cnc2N1` (stereo not shown) [compound 22], the “FabI IC50” value in [1] was 0.58 µg/mL. Moreover, in the data set on Human HelaM cells, the “TOX HELAM (222.125) CC50” value was above 9.43 µg/mL. The “STA (361.159) IC90” value in [2] was found to be 0.23 µg/mL. Also, the “STA + 10% HS (361.169) IC90” value in the data set on S. aureus came to 0.25 µg/mL. In addition, the MIC90 in data set [3] is 0.125 µg/mL (≈ 0.333 µM); in [4], 0.06 µg/mL (≈ 0.16 µM); in data set [5], 1 µg/mL (≈ 2.66 µM); in [6], 4 µg/mL (≈ 10.7 µM); in [7] it was above 8 µg/mL.
Consider `N#Cc1ccccc1C1=CC2CN(C(=O)/C=C/c3cnc4c(c3)CCC(=O)N4)CC2C1` (stereo not shown) [compound 23], for which the “FabI IC50” value in data set [1] was 0.41 µg/mL. For the same compound, the “TOX HELAM (222.125) CC50” value with Human HelaM cells was above 10.3108 µg/mL. Moreover, the “STA (361.159) IC90” value in data set [2] was 0.67 µg/mL. Further, the “STA + 10% HS (361.169) IC90” value with S. aureus is 0.79 µg/mL.
As for `O=C1CCc2cc(/C=C/C(=O)N3C[C@@H]4CN(c5nccs5)C[C@@H]4C3)cnc2N1` [compound 24], the “FabI IC50” value in [1] is 0.58 µg/mL. Besides, the “TOX HELAM (222.125) CC50” value with Human HelaM cells was above 3.9549 µg/mL. In addition, in data set [2], the “STA (361.159) IC90” value is 4.05 µg/mL. Moreover, the “STA + 10% HS (361.169) IC90” value with S. aureus is 2.44 µg/mL.
